From patent US20230085307A1, “PYRIDAZINONE COMPOUND AND HERBICIDE” (NISSAN CHEMICAL CORPORATION, priority 2019, published 2023)

Assays:
velvetleaf [1] = assay: Test Example 4: herbicidal effect by soil treatment (Table 19, symbol M); assay type: in vivo, velvetleaf (Abutilon theophrasti); details: amount of applied herbicide 320 g/ha
Method in brief: (§1)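 Step 1: sow seeds in sterilized diluvial soil, cover ~1.5 cm. Step 2: spray diluted emulsion onto soil surface at predetermined rate. Step 3: greenhouse, 25–30° C, three weeks. Step 4: grade effect on each plant by earlier criteria.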

chickweed = assay: Test Example 5: herbicidal effect by foliage application, plastic box (Table 20, symbol P); assay type: in vivo, common chickweed (Stellaria media); details: foliage application, 320 g/ha
Method in brief: (§2)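 Foliar spray test: emulsion formulation diluted in water to a set application rate, sprayed onto 14-day-old plants raised in diluvial soil at 25° C to 30° C under glass. Both herbicidal effect and crop effect rated visually three weeks later.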

late watergrass = assay: Test Example 1: herbicidal activity, application before weed generation under submerged conditions (Table 16, symbol A); assay type: in vivo, late watergrass (Echinochloa oryzicola); details: amount of applied herbicide 320 g/ha
Method in brief: (§3)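 Submerged Wagner pots (alluvial soil, 4 cm water) sown with weed seeds and planted with 2.5-leaf rice seedlings; emulsifiable concentrate diluted in water applied to water surface on sowing day. Held in greenhouse at 25-30 °C; injury scored 0-5 by herbicidal rate after three weeks.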

Italian ryegrass [2] = assay: Test Example 5: herbicidal effect by foliage application, plastic box (Table 20, symbol K); assay type: in vivo, Italian ryegrass (Lolium multiflorum); details: foliage application, 320 g/ha
Method in brief: as §2

lambsquarters = assay: Test Example 4: herbicidal effect by soil treatment (Table 19, symbol O); assay type: in vivo, lambsquarters (Chenopodium album); details: amount of applied herbicide 320 g/ha
Method in brief: as §1

oval-leafed pondweed = assay: Test Example 2: herbicidal activity, application during weed generation under submerged conditions (Table 17, symbol C); assay type: in vivo, oval-leafed pondweed (Monochoria vaginalis)
Method in brief: (§4)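 Alluvial soil in Wagner pots was flooded to 4 cm depth and sown with the three weeds together; pots were kept in a greenhouse at 25° C. to 30° C. At the one to two leaf stage, an emulsion formulation diluted in water to a set rate went onto the water surface; scored three weeks later.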

velvetleaf [3] = assay: Test Example 5: herbicidal effect by foliage application, plastic box (Table 20, symbol M); assay type: in vivo, velvetleaf (Abutilon theophrasti); details: foliage application, 320 g/ha
Method in brief: as §2

Italian ryegrass [4] = assay: Test Example 4: herbicidal effect by soil treatment (Table 19, symbol K); assay type: in vivo, Italian ryegrass (Lolium multiflorum); details: amount of applied herbicide 320 g/ha
Method in brief: as §1

windgrass = assay: Test Example 5: herbicidal effect by foliage application, plastic box (Table 20, symbol L); assay type: in vivo, windgrass (Apera spica-venti); details: foliage application, 320 g/ha
Method in brief: as §2

southern crabgrass = assay: Test Example 5: herbicidal effect by foliage application, plastic box (Table 20, symbol F); assay type: in vivo, southern crabgrass (Digitaria ciliaris); details: foliage application, 320 g/ha
Method in brief: as §2

green foxtail [5] = assay: Test Example 5: herbicidal effect by foliage application, plastic box (Table 20, symbol G); assay type: in vivo, green foxtail (Setaria viridis); details: foliage application, 320 g/ha
Method in brief: as §2

barnyard grass = assay: Test Example 5: herbicidal effect by foliage application, plastic box (Table 20, symbol H); assay type: in vivo, barnyard grass (Echinochloa crus-galli); details: foliage application, 320 g/ha
Method in brief: as §2

green foxtail [6] = assay: Test Example 4: herbicidal effect by soil treatment (Table 19, symbol G); assay type: in vivo, green foxtail (Setaria viridis); details: amount of applied herbicide 320 g/ha
Method in brief: as §1

Japanese bulrush [7] = assay: Test Example 1: herbicidal activity, application before weed generation under submerged conditions (Table 16, symbol B); assay type: in vivo, Japanese bulrush (Schoenoplectus juncoides); details: amount of applied herbicide 320 g/ha
Method in brief: as §3

wild oat [8] = assay: Test Example 5: herbicidal effect by foliage application, plastic box (Table 20, symbol I); assay type: in vivo, wild oat (Avena fatua); details: foliage application, 320 g/ha
Method in brief: as §2

Japanese bulrush [9] = assay: Test Example 2: herbicidal activity, application during weed generation under submerged conditions (Table 17, symbol B); assay type: in vivo, Japanese bulrush (Schoenoplectus juncoides)
Method in brief: as §4

wild oat [10] = assay: Test Example 4: herbicidal effect by soil treatment (Table 19, symbol I); assay type: in vivo, wild oat (Avena fatua); details: amount of applied herbicide 320 g/ha
Method in brief: as §1

redroot pigweed = assay: Test Example 4: herbicidal effect by soil treatment (Table 19, symbol N); assay type: in vivo, redroot pigweed (Amaranthus retroflexus); details: amount of applied herbicide 320 g/ha
Method in brief: as §1

blackgrass [11] = assay: Test Example 5: herbicidal effect by foliage application, plastic box (Table 20, symbol J); assay type: in vivo, blackgrass (Alopecurus myosuroides); details: foliage application, 320 g/ha
Method in brief: as §2

persian speedwell = assay: Test Example 4: herbicidal effect by soil treatment (Table 19, symbol R); assay type: in vivo, Persian speedwell (Veronica persica); details: amount of applied herbicide 320 g/ha
Method in brief: as §1

blackgrass [12] = assay: Test Example 4: herbicidal effect by soil treatment (Table 19, symbol J); assay type: in vivo, blackgrass (Alopecurus myosuroides); details: amount of applied herbicide 320 g/ha
Method in brief: as §1

[13] = evaluated 3 weeks after application
[14] = application during weed generation under submerged conditions, amount of applied herbicide 320 g/ha
[15] = AAH 320 g/ha, application during weed generation, submerged conditions

Q: Which results are given for `CSc1ccc(-c2oc3ccc(C)cc3c2-c2c(O)c(C)nn(C)c2=O)cc1` [9-055]?
A: M: velvetleaf, herbicidal effect grade (velvetleaf [1]): 5 (Herbicidal rate of 90% or more (almost completely withered)); P (chickweed) herbicidal effect grade (chickweed; [13]): 5 (Herbicidal rate of 90% or more (almost completely withered)); Herbicidal effect, A: late watergrass (late watergrass): 5 (Herbicidal rate of 90% or more (almost completely withered)); K (Italian ryegrass) herbicidal effect grade (Italian ryegrass [2]; [13]): 5 (Herbicidal rate of 90% or more (almost completely withered)); O: lambsquarters, herbicidal effect grade (lambsquarters): 4 (Herbicidal rate of 70% or more and less than 90%); herbicidal effect grade, C: oval-leafed pondweed (oval-leafed pondweed; [14]): 3 (Herbicidal rate of 40% or more and less than 70%); M (velvetleaf) herbicidal effect grade (velvetleaf [3]; [13]): 5 (Herbicidal rate of 90% or more (almost completely withered)); K: Italian ryegrass, herbicidal effect grade (Italian ryegrass [4]): 5 (Herbicidal rate of 90% or more (almost completely withered)); L (windgrass) herbicidal effect grade (windgrass; [13]): 4 (Herbicidal rate of 70% or more and less than 90%); F (southern crabgrass) herbicidal effect grade (southern crabgrass; [13]): 4 (Herbicidal rate of 70% or more and less than 90%); G (green foxtail) herbicidal effect grade (green foxtail [5]; [13]): 3 (Herbicidal rate of 40% or more and less than 70%); H (barnyard grass) herbicidal effect grade (barnyard grass; [13]): 4 (Herbicidal rate of 70% or more and less than 90%); G: green foxtail, herbicidal effect grade (green foxtail [6]): 4 (Herbicidal rate of 70% or more and less than 90%); Herbicidal effect, B: Japanese bulrush (Japanese bulrush [7]): 4 (Herbicidal rate of 70% or more and less than 90%); I (wild oat) herbicidal effect grade (wild oat [8]; [13]): 0 (Herbicidal rate of 5% or less (almost no effect)); herbicidal effect grade, B: Japanese bulrush (Japanese bulrush [9]; [14]): 3 (Herbicidal rate of 40% or more and less than 70%); I: wild oat, herbicidal effect grade (wild oat [10]): 0 (Herbicidal rate of 5% or less (almost no effect)); N: redroot pigweed, herbicidal effect grade (redroot pigweed): 5 (Herbicidal rate of 90% or more (almost completely withered)); J (blackgrass) herbicidal effect grade (blackgrass [11]; [13]): 5 (Herbicidal rate of 90% or more (almost completely withered)); R: persian speedwell, herbicidal effect grade (persian speedwell): 5 (Herbicidal rate of 90% or more (almost completely withered))

Q: `CCCC(=O)Oc1c(C)nn(C)c(=O)c1-c1c(-c2ccc(OC(C)C)cc2)sc2cc(F)ccc12` [3-020] was tested. Which “herbicidal effect, M: velvetleaf” value (velvetleaf [1]) did it give?
A: Its value is 0 (Herbicidal rate of 5% or less (almost no effect)).

Q: And the “P: chickweed, herbicidal effect grade” value (chickweed; three weeks after application)?
A: The value was 5 (Herbicidal rate of 90% or more (almost completely withered)).

Q: What about the “Herbicidal effect, A: late watergrass” value (late watergrass) of the same molecule?
A: Its value is 3 (Herbicidal rate of 40% or more and less than 70%).

Q: What about the “K: Italian ryegrass, herbicidal effect grade” value (Italian ryegrass [2]; three weeks after application) of the same molecule?
A: Its value is 2 (Herbicidal rate of 20% or more and less than 40%).

Q: And the “herbicidal effect, O: lambsquarters” value (lambsquarters)?
A: Its value is 0 (Herbicidal rate of 5% or less (almost no effect)).

Q: And the “herbicidal effect rating, C: oval-leafed pondweed” value (oval-leafed pondweed; [15])?
A: Its value is 2 (Herbicidal rate of 20% or more and less than 40%).

Q: What about the “M: velvetleaf, herbicidal effect grade” value (velvetleaf [3]; three weeks after application) of the same molecule?
A: Its value is 3 (Herbicidal rate of 40% or more and less than 70%).

Q: And the “herbicidal effect, K: Italian ryegrass” value (Italian ryegrass [4])?
A: The value was 0 (Herbicidal rate of 5% or less (almost no effect)).

Q: And the “L: windgrass, herbicidal effect grade” value (windgrass; three weeks after application)?
A: Its value is 0 (Herbicidal rate of 5% or less (almost no effect)).

Q: And the “F: southern crabgrass, herbicidal effect grade” value (southern crabgrass; three weeks after application)?
A: Its value is 0 (Herbicidal rate of 5% or less (almost no effect)).

Q: What about the “G: green foxtail, herbicidal effect grade” value (green foxtail [5]; three weeks after application) of the same molecule?
A: The value was 0 (Herbicidal rate of 5% or less (almost no effect)).

Q: And the “H: barnyard grass, herbicidal effect grade” value (barnyard grass; three weeks after application)?
A: The value was 2 (Herbicidal rate of 20% or more and less than 40%).

Q: And the “herbicidal effect, G: green foxtail” value (green foxtail [6])?
A: The value was 0 (Herbicidal rate of 5% or less (almost no effect)).

Q: And the “Herbicidal effect, B: Japanese bulrush” value (Japanese bulrush [7])?
A: The value was 3 (Herbicidal rate of 40% or more and less than 70%).

Q: And the “I: wild oat, herbicidal effect grade” value (wild oat [8]; three weeks after application)?
A: The value was 0 (Herbicidal rate of 5% or less (almost no effect)).

Q: What about the “herbicidal effect rating, B: Japanese bulrush” value (Japanese bulrush [9]; [15]) of the same molecule?
A: The value was 0 (Herbicidal rate of 5% or less (almost no effect)).

Q: What about the “herbicidal effect, I: wild oat” value (wild oat [10]) of the same molecule?
A: The value was 0 (Herbicidal rate of 5% or less (almost no effect)).

Q: And the “herbicidal effect, N: redroot pigweed” value (redroot pigweed)?
A: The value was 4 (Herbicidal rate of 70% or more and less than 90%).

Q: What about the “J: blackgrass, herbicidal effect grade” value (blackgrass [11]; three weeks after application) of the same molecule?
A: Its value is 2 (Herbicidal rate of 20% or more and less than 40%).

Q: What about the “herbicidal effect, J: blackgrass” value (blackgrass [12]) of the same molecule?
A: The value was 0 (Herbicidal rate of 5% or less (almost no effect)).
